Drawing on a melting point compilation (Tetko et al.; mined from patent text by program, amines drawn as free bases though some values may be those of a salt), this text covers melting point for 88 compounds.

For orientation: melting point means the temperature of the solid-liquid transition.

Bounds are passed on as bounds.

Compound `COC(=O)C(O)=CC(=O)c1cn(Cc2ccccc2F)c(=O)n(Cc2ccccc2F)c1=O` showed a melting point of 158 to 160 °C. With `CC(=O)[C@@H]1C/C=C(/C)C/C=C/[C@H](C)[C@H](O[Si](C)(C)C(C)(C)C)[C@@H](C)C(=O)C(C)(C)[C@@H](O[Si](C)(C)C(C)(C)C)CC(=O)O1`, the melting point came out at 85 °C. The value for `Cc1ccnc2c1C(O)c1ccccc1-2` (stereo not drawn) was 154 to 156 °C; that for `COc1ccc(-c2cn3ccc(C)cc3n2)cc1OC` was 163 °C. To `COC(=O)c1csc(CCCc2coc3nc(N)nc(N)c23)c1` belongs 156 to 157 °C. To `CC(C(=O)O)c1ccc2c(c1)Cc1cccnc1S2` (stereo not drawn) belongs 203 to 204 °C; to `c1ccc2c(C3CCCc4cncn43)noc2c1` (stereo not drawn), 250 to 252 °C; to `Cc1ccc2c(c1)C1(CNC(=O)C1)CC2=O` (stereo not drawn), 188 to 192 °C. The compound `CN1CCC(c2cnc3ccc(C(=O)Nc4ccc(F)cc4)[nH]c2-3)CC1` registered a melting point of 114 to 116 °C. The value for `COc1cc2c3c(c1OC)CCc1ccccc1C3CNC2` (stereo not drawn) was greater than 250 °C. With `CCOC(=O)c1cc(CC#N)c(C)s1`, the melting point lay within 55 to 57 °C. `O=C(CNC(=O)C1CCCCC1)c1ccco1` yielded a melting point of 110 to 111 °C.

With `COc1cc(CCCN(C)Cc2ccc(OC)c(OC)c2)ccc1NC(=O)c1cccc2c(=O)c3cccc(F)c3[nH]c12`, the melting point fell in the range of 170 to 190 °C.

Take `c1ccc2c(c1)c1ccccc1n2C1CCCCO1` (stereo not drawn): the melting point is 131 to 133 °C. To `O=Cc1cc([N+](=O)[O-])ccc1Oc1ccc(F)cc1` belongs 125 to 126 °C; to `Cc1c(F)cc2c(=O)c(C(=O)O)cn(CCF)c2c1F`, 215 to 217 °C; to `CC(Cn1ncnn1)n1nnc2cc3c(=O)n(C4CCC4)nnc3cc2c1=O` (stereo not drawn), 152 to 154 °C. `COc1cc2c(cc1OC)CN(c1nc(N)nc3cc(OC)c(OC)cc13)CC2` came in with a melting point of 245 °C. With `CC(=O)C1Cc2ccc(O)c(O)c2C1=O` (stereo not drawn), the melting point is 159 to 160 °C. The compound `CN1C(=O)C2C3C=CC(C3)C2(c2ccc([N+](=O)[O-])cc2)C1=O` (stereo not drawn) yielded a melting point of 163 to 167 °C.

For `CCCNCC(O)c1ccc(S(C)(=O)=O)cc1` (stereo not drawn), the melting point lay within 120 to 123 °C. `CCCC(=O)Nc1cc(S(=O)c2ccccc2)ccc1N(C(=N)NC(=O)OC)C(=O)OC` (stereo not drawn) came in with a melting point of 134 °C. To `CCC(C)(C)C(=O)Oc1cccc2ccc(OCCOc3ccc(C(=O)C(=O)O)cc3)cc12` belongs 167 to 168 °C; to `O=S(=O)(c1ccc(Br)cc1)n1ccc2ccccc21`, 106 °C. On to `C#CC(OC)c1cc(C(C)(C)C)cc(C(C)(C)C)c1OC` (stereo not drawn), for which the melting point is 68 to 70 °C. For `COc1ccc2c(c1)c(CC(=O)OCC(=O)O)c(C)n2C(=O)c1ccccc1F`, the melting point is 172 to 173 °C. To `CNc1c(OC)cc(Cc2cnc(N)nc2N)cc1OC` belongs 204 °C. For the compound `O=C(Nc1nc(Cl)cc(Cl)n1)NS(=O)(=O)c1cccc2cccnc12`, the melting point lay within 198 to 200 °C.

Consider `O=C1CCC(N2C(=O)c3cccc(NCCOCc4ccccc4)c3C2=O)C(=O)N1` (stereo not drawn), for which the melting point was in the range of 158 to 160 °C.

For the compound `CON=CC1CCCN(OC(=O)c2ccccc2)C1` (stereo not drawn), the melting point fell in the range of 38 to 40 °C. To `COc1cc(COc2nn(Cc3ccccc3)cc2C(C)O)ccc1OCc1nc(-c2ccco2)oc1C` (stereo not drawn) belongs 105 to 106 °C. To `CCCOC(Cc1ccc(OCc2nc(C(C)(C)C)oc2C)c2ccccc12)C(=O)O` (stereo not drawn) belongs 169 to 170 °C. To `CCC(C(O)C(C)C(O)C(C)CCc1ccc(C)c(O)c1C(=O)O)C1OC(CC)(C2CCC(O)(CC)C(C)O2)CC1C` (stereo not drawn) belongs 151 to 153 °C; to `Nc1cccc(Nc2ncc(-c3cccnc3)s2)c1`, 162 °C. `COc1ccc(Cn2c(N)c(NC(=O)C(C)(C)OCc3ccccc3)c(=O)[nH]c2=S)cc1OC1CCCC1` had a melting point of 198 to 202 °C. The value for `c1ccc2cc3sccc3cc2c1` was 193 to 194 °C; that for `CC(C)(C)C1=NC(=Cc2[nH]c(C(C)(C)C)c3ccccc23)c2ccccc21` was 195 °C. The value for `CCCCCCCCOC(=O)C(CC(C)C)NC(=O)c1cc([N+](=O)[O-])cc([N+](=O)[O-])c1` (stereo not drawn) was 71 to 73 °C; that for `Cc1ccccc1C(=O)c1ccsc1C(=O)O` was 115 to 117 °C; that for `O=[N+]([O-])c1ccc2c(c1)C(Cc1ccncc1)(Cc1ccncc1)c1ccccc1-2` was 260 to 264 °C. In turn, `Cc1ccc2c(-c3nnn[nH]3)cn(Cc3ccc4oc(-c5nc(C(C)(C)C)cs5)cc4c3)c2c1` gave a melting point of 240 to 245 °C.

In turn, `CC(C)CC(CS)C(=O)N[C@@H](C)C(=O)N[C@@H](CCCNC(=N)N)C(=O)O` (stereo partly drawn) came in with a melting point of 140 to 150 °C. Consider `Cc1ccc(CSC(=S)N2Cc3[nH]c4ccccc4c3CC2C(=O)O)cc1` (stereo not drawn), for which the melting point was 188 to 190 °C.

`Cc1oc2ccccc2c1C(=O)NCc1ccc2c(Br)c(OCC#N)ccc2c1` yielded a melting point of 180 to 182 °C. In turn, `CCCCn1c(C)nc(SC)nc1=O` showed a melting point of 62 to 63 °C. To `COCc1nc2c(N)cc(Br)cc2n1C` belongs 138 to 140 °C; to `CCCOc1ccc(S(=O)(=O)NCCN(C)C)cc1-c1nc2cc3nc[nH]c3cc2c(=O)[nH]1`, 212 to 214 °C. To `Fc1cc(N2CCN(C3CCN(c4cccc5cccnc45)CC3)CC2)c2ncccc2c1` belongs 211 °C; to `CN(C)C=NS(=O)(=O)c1ccc(Br)s1`, 103 to 105 °C; to `CC1CC(=O)N(c2cc(Cc3n[nH]c(=O)c4ccccc34)ccc2F)C1=O` (stereo not drawn), 171 to 172 °C. With `Cc1cc(C)nc(NC#N)n1`, the melting point was determined as 205 °C.

`CCCn1c(=S)[nH]c2ccsc2c1=O` yielded a melting point greater than 230 °C. The value for `CCOC(=O)/C=C1\C[C@@H]2c3cccc4[nH]cc(c34)C[C@H]2N(C)C1` was 170 to 171 °C; that for `COc1ccc2[nH]c3cc(-c4ccccc4C#N)c4c(c3c2c1)C(=O)NC4=O` was 348 to 350 °C. `CC(C)(C)OC(=O)N1CCC(c2ccc(COc3ccc(S(C)(=O)=O)cc3)cn2)CC1` had a melting point of 140 to 142 °C.

For the compound `CC(=O)Nc1nc(N(C(C)=O)C(C)=O)c(CCC=O)c(=O)[nH]1`, the melting point fell in the range of 164 to 168 °C. To `CC(C)n1nc(-c2c(-c3ccccc3)nn3ccc(OCCC4CCCCC4)cc23)ccc1=O` belongs 146 to 147 °C. `COC(=O)c1cc(C)ccc1NC(=O)N(C)C`: the melting point came out at 92 °C. The value for `O=C(Nc1ccc(-c2ccc(-c3ccc(NC(=O)c4ccccc4)cc3)o2)cc1)c1ccccc1` was 312 to 314 °C. The value for `O=C(C=Cc1ccc(Cl)c(Cl)c1)C1CC1` was 74 to 76 °C. The value for `Cc1cn(-c2cc(C#N)c(N)c(C(F)(F)F)c2)c(C)n1` was 208 to 210 °C. The compound `CCc1ccc(C(N)=O)c([N+](=O)[O-])c1` registered a melting point of 175 °C.

Consider `Fc1ccc(-n2ncnc2-c2ccncc2)cc1`, for which the melting point lay in the range of 114 to 115 °C.

Turning to `COc1cc(O)c(C=O)c2cc(-c3ccc(O)cc3)oc12`, the melting point lay in the range of 254 to 255 °C. To `O=C(Nc1ccccc1)c1csc(Oc2cccc(Cl)c2)n1` belongs 94 to 95 °C. To `Nc1ncnc2c1c(-c1ccc(Oc3ccccc3)cc1)cn2CC(=O)NCCN1CCNCC1` belongs 138 to 140 °C; to `CCCCCN(CCCCC)C(=O)C(CCC(=O)OC)CS(=O)c1ccc(Cl)c(Cl)c1` (stereo not drawn), 64 to 65 °C; to `COc1cc(F)ccc1Oc1c(Cl)nc(-c2ncccn2)nc1NS(=O)(=O)c1ccc(C(C)(C)C)cc1`, 225 to 227 °C.

On to `O=C1c2ccc(Sc3ccc(Cl)cc3)cc2C(=O)N1Cc1cccnc1`, for which the melting point was 115 to 118 °C.

`O=c1[nH]c(N[N+](=O)[O-])ncc1Cc1cccnc1`: the melting point was in the range of 214 to 216 °C. The value for `CCCCCCCCC1(C#N)CCC(c2ccc(-c3ccc(CCCC)cc3)cc2)CC1` (stereo not drawn) was 52 °C; that for `NS(=O)(=O)c1ccc(NC(=O)Nc2ccccc2)cc1` was 233 to 235 °C. To `Cc1ccc(N(CCN2CCC(C(=O)c3ccc(F)cc3)CC2)C(=O)c2ccc([N+](=O)[O-])cc2)cc1` belongs 175 to 178 °C. The value for `O=C1CCC(c2c[nH]c3cccc(F)c23)CC1` was 104 to 106 °C. Turning to `O=S(=O)(Nc1ccc(Cl)nc1I)c1ccc2ncccc2c1`, the melting point was greater than 250 °C. To `CC(=O)OCCCNC(=O)C1=C(C(=O)Nc2ccc(Cl)cc2F)CCCC1` belongs 127 to 128 °C; to `O=C(c1ccn2c1CSC2c1cccnc1)c1c[nH]c2cc(-c3ncccn3)ccc12` (stereo not drawn), 125 to 128 °C. To `C[C@H](NC(=O)OC(C)(C)C)C(=O)OCC(C)(C)Nc1cccc2c1C(=O)c1ccccc1C2=O` belongs 120 °C; to `COC(=O)c1ccc2c(oc3ccccc32)c1C(=O)OC`, 123 °C. To `CC(C)(C)OC(=O)N1CCN(c2ncnc3c2cnn3Cc2cccc(Br)n2)CC1` belongs 126 to 128 °C; to `COc1ccc(-n2c(-c3sc(Nc4ccc(Cl)cc4)nc3-c3ccccc3)nc3ccccc3c2=O)cc1`, 220 to 221 °C. Consider `CC(C)c1[nH]c(=O)[nH]c1-c1cc(C(C)(C)C)c(O)c(C(C)(C)C)c1`, for which the melting point is greater than 290 °C. To `CCCCCCN1CCC[C@H](NCc2ccccc2OC)[C@@H]1c1ccccc1` (relative stereo) belongs 48 to 50 °C; to `COc1nsnc(Cl)c1=O`, 159 to 161 °C. `CCC(=O)NCCC1CCc2ccn3nc(C)cc3c21` (stereo not drawn) yielded a melting point of 100 to 102 °C.

`CC(C)(C)c1cc2c(cc1Br)C=C(C(=O)O)C(C(F)(F)F)O2` (stereo not drawn): the melting point lay in the range of 199 to 200 °C.

For the compound `CNC(=O)[C@@H]1CC[C@H](C(=O)O)N1Cc1ccccc1` (relative stereo), the melting point was 190 to 192 °C. To `C=CCc1cn2c(=O)c(C(=O)O)cnc2c2cc(OC)ccc12` belongs 207 to 210 °C.
